Test results from patent US4645779A, “Dialkylaminoalkoxybenzylalcohol derivatives, process for their preparation and pharmaceutical compositions containing them” (Richter Gedeon Vegyeszeti Gyar Rt, priority 1982, dated 1987).

Legend:
Hann.-Wistar rats = test: Effect on ethanolic narcosis period (righting reflex); format: in vivo, rat; settings: 1 h before ethanol 3.5 g./kg. i.p., control = 100 ± 4.0, n=10
Procedure: The effect of the compounds according to the invention on ethanolic narcosis period was tested on Hann.-Wistar rats of both sexes, weighing 160 to 180 g. each. The animals were fasted for 16 hours prior to treatment. Groups of ten were then treated with various doses of the compounds of the formula (I) orally. One hour after treatment the animals were given a 3.5 g./kg. dose of ethanol, intraperitoneally. The narcosis period of the animals was measured from the elapse of the righting reflex until a spontaneous correction of the body position. The average of the narcosis period and the standard error were calculated, and the results are given in percentage of the control in Table 1. Abbreviations: x±S.E.=means value ± standard error n=number of animals The control group was treated with a placebo and a […]. dose of ethanol. Narcosis period of the control: 88.5±3.54x±S.E. minutes

[1] = Acute toxicity, single oral dose, 14 days observation; format: in vivo, rat; settings: rat, in vivo, po, 500 mg./kg. p.o., n=10, read-out: Perished animals (%)
Procedure: (§1) The acute toxicity of the compounds provided by the invention was determined on Wistar rats of both sexes, each weighing 160 to 180 g., which had been treated with a single 500 mg./kg. dose of the test compounds, orally. […] In Table 3 the percentage of the perished animals is given.

[2] = in vivo; cited from earlier work
[3] = in vivo; cited from earlier work; remark: listed apart in the source
mice = settings: cited from earlier work
BALB/c mice = test: Effect on ethanolic locomotoric hyperactivity / locomotor activity (Animex BSE motimeter); format: in vivo, mouse; settings: n=15
Procedure: The effect of the compounds provided by the invention on ethanolic locomotoric hyperactivity was tested on BALB/c mice of both sexes, each weighing 16 to 18 g. The test materials were administered to groups of 15 in a 40 mg./kg. oral dose, one hour before administering a placebo orally or a 2 g./kg. dose of ethanol intraperitoneally. The control animals were treated with a placebo. The locomotor activity of the animals was measured for two hours, using an Animex BSE motimeter. The results are shown as a Table 2, in percentage of the control.
°Control (treated with placebo): ^-x ± S.E. = 3118.3 ±
305.6 total motion/2 hours

Wistar rats = test: Acute toxicity, single oral dose, 14 days observation; format: in vivo, rat; settings: 500 mg./kg. p.o., n=10
Procedure: as §1

## N[C@@H](CS)C(=O)O [L-cysteine, reference compound]
Hann.-Wistar rats; 500.0 mg./kg. orally
  Ethanolic narcosis period, control ± S.E. %: 63 ± 4.2%
[1]
  mortality at 336 h: 0%
[2]
  alcoholic intoxication, i.e. narcosis period (in words): shortened

## CC(N)Cc1ccccc1 (centres unmarked) [amphetamine]
[2]
  narcotizing effect of alcohol (in words): moderate the narcotizing effect of alcohol
[3]
  motoric incoordination (ataxia) (in words): prolong the motoric incoordination (ataxia)

## CCCN(CCC)CCCOc1ccc(C(O)(CC)c2ccccc2OC)cc1 (stereo not drawn) [A, α-ethyl-α-(2-methoxyphenyl)-4-[3-(di-n-propylamino)-propoxy]-benzylalcohol]
Hann.-Wistar rats; 5.0 mg./kg. orally
  Ethanolic narcosis period, control ± S.E. %: 60 ± 10.1%
Hann.-Wistar rats; 10.0 mg./kg. orally
  Ethanolic narcosis period, control ± S.E. %: 50 ± 6.9%
[1]
  mortality at 336 h: 0%

## CC(N)(Cc1ccc(O)cc1)C(=O)O (stereo not drawn) [α-methyl-paratyrosine]
mice; in the effective dose range
  spontaneous locomotoric activity (in words): a decrease of the spontaneous locomotoric activity
mice; mice
  ethanolic locomotoric hyperactivity (in words): normalizes the ethanolic locomotoric hyperactivity

## CCCN(CCC)CCCOc1ccc(C(O)(CC)c2cccc(Cl)c2)cc1 (stereo not drawn) [B, α-ethyl-α-(3-chlorophenyl)-4-[3-(di-n-propylamino)-propoxy]-benzylalcohol]
Hann.-Wistar rats; 0.3 mg./kg. orally
  Ethanolic narcosis period, control ± S.E. %: 65 ± 6.8%
Hann.-Wistar rats; 1.0 mg./kg. orally
  Ethanolic narcosis period, control ± S.E. %: 53 ± 4.7%
Hann.-Wistar rats; 10.0 mg./kg. orally
  Ethanolic narcosis period, control ± S.E. %: 49 ± 2.8%
BALB/c mice; B + ethanol 2000 mg./kg. i.p., 40 mg./kg. oral 1 h before, control = 100 ± 9.8, ethanol + placebo = 170 ± 11.8
  Locomotor activity total motion/2 hour (%): 70 ± 8.4%
BALB/c mice; B + placebo (no ethanol), 40 mg./kg. oral, control = 100 ± 9.8
  Locomotor activity total motion/2 hour (%): 108 ± 13.3%
[1]
  mortality at 336 h: 0%

## Cn1c(=O)c2c(ncn2C)n(C)c1=O [caffeine]
[2]
  narcotizing effect of alcohol (in words): moderate the narcotizing effect of alcohol
[3]
  motoric incoordination (ataxia) (in words): prolong the motoric incoordination (ataxia)

## CCC(O)(c1ccc(OCCN(C(C)C)C(C)C)cc1)c1ccccc1C(F)(F)F (stereo not drawn) [Compound C, α-ethyl-α-(2-trifluoromethylphenyl)-4-[3-(di-isopropylamino)-ethoxy]-benzylalcohol]
Hann.-Wistar rats; 40.0 mg./kg. orally
  Ethanolic narcosis period, control ± S.E. %: 62 ± 5.1%
Wistar rats
  Perished animals (%): 0%
